The results in this text go back to paper PMC6268492, “Synthesis and Antiangiogenic Activity of Novel Gambogic Acid Derivatives” (Molecules, 2012).

For assay [1], the system named is LO2. As to the kind of experiment: MTT assay, cytotoxicity. The assay is classed as cell-based. Conditions: Homo sapiens, L02, 24 h, read-out: IC50, inhibition of cell proliferation. In outline:
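Absorbance at 570 nm of DMSO-dissolved formazan was expressed as percentage growth relative to untreated cells, and IC50 was taken as the concentration giving 50% inhibition. Seeding was 5 × 10^3 cells per well, with 24 h compound treatment followed by 3 h MTT.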
A general note: Formazan colour is commonly taken as a measure of viable cells.

Assay [2] concerns transgenic fli-1: enhanced GFP zebrafish embryos. As to the kind of experiment: Zebrafish embryo assay: antiangiogenic effects. Particulars: Danio rerio, zebrafish embryos. Format: in vivo, zebrafish (Danio rerio).
In assay [3] the test system is HUVEC. The experiment in a line: MTT assay, cell proliferation. Format: cell-based, Human. Particulars: Homo sapiens, 24 h, read-out: IC50, inhibition of cell proliferation. In a few lines:
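Treatment lasted 24 h at 5 × 10^3 cells per well. MTT incubation ran 3 h, formazan was dissolved in DMSO and A570 was recorded. Percent growth against untreated wells gave the IC50 (50% inhibition).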

Each structure is given as a SMILES string. Where two headings read alike, the source gives them in different places.

As for `CC(=O)Nc1ccc(NC(=O)/C(C)=C\CC23OC(C)(C)C4CC(C=C5C(=O)c6c(O)c7c(c(CC8OC8(C)C)c6OC542)OC(C)(CCC2OC2(C)C)C=C7)C3=O)cc1` (stereo not drawn) [Compound 36, (32,33),(37,38)-Diepoxy-N-(4-acetamidophenyl) gambogamide], the IC50 in assay [1] worked out at 1620 ± 80 nM; in assay [3], 2450 ± 90 nM. Also, the inhibition in vivo at 1 µM was in the range of 25 to 50% in assay [2] (read-out: antiangiogenic rates) and 25 to 50% in assay [2] (vs vehicle (0.05% DMSO), read-out: Anti-angiogenic phenotype). The inhibition in vivo at 2.5 µM in assay [2] (2.5 μM, vs vehicle (0.05% DMSO), read-out: Anti-angiogenic phenotype) lay within 50 to 75%. Besides, the inhibition in vivo at 10 µM in assay [2] (10 μM, vs vehicle (0.05% DMSO), read-out: Anti-angiogenic phenotype) is over 75%.
